Article PMC4703387, “Identification of the Calmodulin-Binding Domains of Fas Death Receptor” (PLoS ONE, 2016)
Where no end group is shown, it is not given here.

Legend:
Ca^2+/CaM [1] = biological target: T1, Ca^2+/CaM (Homo sapiens, UniProt P0DP23); assay: Gel filtration assay of Ca^2+/CaM-peptide complexes; type: binding; conditions: HiLoad Superdex 75 (10/300 GL), 50 mM Tris (pH 7.0), 100 mM NaCl, 5 mM CaCl2
T1 construct: made in house
Protocol: The mobility of Ca^2+/CaM complexes with Fas-Pep1 and Fas-Pep2 was analyzed by a gel filtration assay. […] Protein fractions were analyzed by SDS-PAGE. A low molecular weight calibration kit (GE Healthcare) was used to determine the approximate molecular weight of complexes.
Fas-Pep2 has been expressed and purified as a fusion protein with SUMO (see Materials and Methods). Because of some technical difficulties during purification of a recombinant peptide, a synthetic Fas-Pep1 was used in this study. The solution properties of Fas-Pep1 and Fas-Pep2 and their complexes with Ca^2+/CaM were initially analyzed with size exclusion chromatography assay. Samples were run on a size exclusion column (Superdex 75) under identical buffer conditions. Sample concentrations were at ~50–100 μM. […] Ca^2+/CaM complexes with Fas-Pep1 and Fas-Pep2 prepared at 1:1 stoichiometry eluted at 11.3 and 11.2 mL, respectively (Fig 3A). […] The formation of complexes was confirmed by SDS-PAGE (Fig 3B). […] As we and others have shown previously, Ca^2+/CaM elutes at a smaller than expected volume due to its elongated dumbbell shape.[32, 42, 43]

Ca^2+/CaM [2] = biological target: T1, Ca^2+/CaM; assay: NMR (HSQC, 3D 15N-edited HSQC-NOESY, TALOS+) of 15N-/13C-labeled Fas-Pep2; type: physicochemical
Protocol: NMR data were collected at 35°C on a Bruker Avance II (700 MHz ^1H) spectrometer equipped with a cryogenic triple-resonance probe, processed with NMRPIPE [35] and analyzed with NMRVIEW [36] or CCPN Analysis. […] For signal assignments of the complexes, ^13C-, ^15N-, or ^13C-/^15N-labeled Ca^2+/CaM at ~400–500 μM was mixed with unlabeled Fas-Pep1 (in 100% DMSO-d6) or Fas-Pep2 at 1.5:1 peptide:Ca^2+/CaM. […] The backbone atom resonances of Ca^2+/CaM complexes with Fas-Pep1 and Fas-Pep2 were assigned using HNCA, HN(CO)CA, HNCACB, HNCO, HN(CO)CACB and ^15N-edited NOESY-HSQC and TOCSY-HSQC experiments. These experiments have been also collected on ^15N-, or ^13C-/^15N-labeled Fas-Pep2 in complex with unlabeled Ca^2+/CaM to confirm the α-helical character of Fas-Pep2 when bound to Ca^2+/CaM. The chemical shifts of Ca^2+/CaM-bound Fas-Pep2 were used to predict its order parameters and secondary structure content in TALOS+.[38] Combined ^1H-^15N chemical shift changes were calculated as ΔδHN = [(ΔδH)^2+(ΔδN/5)^2]^1/2, where ΔδH and ΔδN are the ^1H and ^15N chemical shift changes, respectively. Kd values were calculated by non-linear least-square fitting algorithm in Origin software (OriginLab, Northampton, MA) using the equation: ΔδHN=ΔδHN^max((Kd+L0+P0)−((Kd+L0+P0)^2−4*P0*L0)^0.5)/(2*P0) where ΔδHN^max is the chemical shift change between complex and free protein, L0 total concentration of ligand, and P0 total concentration of protein.
Far-UV CD spectra of Ca^2+/CaM, Fas-Pep1, Fas-Pep2 and their complexes have been obtained to determine whether formation of the complexes induce any major changes in the secondary structures of the peptides and/or Ca^2+/CaM protein. […] The CD spectra of the complexes are similar to those of Ca^2+/CaM with features distinctive of an α-helical type. Relatively minor changes are observed in the CD signal of Ca^2+/CaM upon binding to FasDD peptides. […] Induction of the α-helical character of Fas-Pep2 upon binding to Ca^2+/CaM has been confirmed by NMR spectroscopy. […]

**Q.** Which “elution volume, free” value (Ca^2+/CaM [1]; ~50–100 μM) does the source give for “VQDTAEQKVQLLRNWHQLHGKKEAYDTLIKDLKKANLC [Fas-Pep2]” here?
**A.** 15.2 mL

**Q.** And the “elution volume of complex with Ca^2+/CaM” value (Ca^2+/CaM [1]; prepared at 1:1 stoichiometry)?
**A.** 11.2 mL

**Q.** What about the “conformation when bound to Ca^2+/CaM (NOESY)” value (Ca^2+/CaM [2]; 3D 15N-edited HSQC-NOESY) of the same sequence?
**A.** adopts an α-helical conformation upon binding to CaM

**Q.** And the “conformation of free peptide (NMR)” value (Ca^2+/CaM [2]; 15N-Fas-Pep2, 1H-15N HSQC, 35°C, pH 7.0)?
**A.** lack of ordered structure

**Q.** And the “conformation when bound to Ca^2+/CaM (chemical shift index, TALOS+)” value (Ca^2+/CaM [2]; prediction from measured chemical shifts)?
**A.** adopts an α-helical conformation upon binding to Ca^2+/CaM
